The text below walks through data of patent US5656603A (Loyola University of Chicago, priority 1995, dated 1997).

Values joined by “and” are separate entries in the source; they are usually repeats but may differ in a detail not shown here. Equal entries are not always repeated. “Also recorded” adds a separate entry of the source.

Series [1] deals with [3H]-bradykinin degradation in the isolated perfused rat lung. Kind of series: [3H]-bradykinin degradation in the isolated perfused rat lung (HPLC of perfusate). As for the experimental part: Using the procedure described herein, under Experimental Procedures it was determined that aminopeptidase P contributed to Bk degradation in the mammalian lung. In that procedure, [^3 H]-Bk (labelled in Pro^2 and Pro^3) was perfused through the isolated lung in the presence or absence of various peptidase inhibitors. The perfusate was then analyzed for radiolabelled products by HPLC. […] Most of the radioactivity (an average of 79%) was in the form of [^3 H]-Pro-Pro [Bk(2-3)] with the remainder being [^3 H]-Bk(1-5). It was hypothesized that pulmonary vascular aminopeptidase P was cleaving the Arg'-Pro^2 bond followed by rapid removal of Pro-Pro by dipeptidylpeptidase IV (DPP IV) (12). Simultaneously, angiotensin converting enzyme (ACE) was sequentially removing Phe-Arg and Ser-Pro from the C-terminus (13). […] However, most of the radioactivity remained in the Pro-Pro peak indicating substantial cleavage of Bk at the N-terminal end.
Perfusion of the Isolated Rat Lung--Male Sprague Dawley rats, weighing 300-500 grams, were anesthetized with sodium pentobarbital (50-75 mg/kg) given by intraperitoneal injection. The trachea was cannulated and the lungs ventilated with air at 70 cycles per minute (Harvard Small Animal Ventilator) at a pressure of 70 mm H2 O. The heart and lungs were exposed via midsternal incision and 1000 units of heparin were administered intracardially. Polyethylene cannulae were secured into the pulmonary artery and the left ventricle. A modified Krebs buffer (118.5 mM NaCl, 4.7 mM KCl, 1.1 mM KH2 PO4, 1.1 mM MgSO4, 2.5 mM CaCl2, 19.6 mM NaHCO3, 5.6 mM dextrose), which was kept in a 50° C. water bath and aerated with 95% O2 -5% CO2 to pH 7.35, was perfused into the pulmonary artery at 35° C. and 2.6 ml/min (LKB Microperplex peristaltic pump). The buffer was circulated through the isolated lung in situ until the effluent was free of blood. The surgical field was maintained at 37° .C with a heat lamp throughout the procedure. Experiments were conducted by introducing [^3 H]-Bk in the presence or absence of test peptidase inhibitors into the pulmonary circulation via the pulmonary artery and then collecting perfusion effluent from the left ventricular cannula. […] The lung was then perfused with 1 μCi [^3 H]-Bk in 1 ml of the inhibitor solution (giving 16 nM Bk) followed by inhibitor solution alone. Effluent was collected in tubes (0.5 min/fraction) containing 150 μl of 2% TFA. For each lung preparation, 5-6 samples were perfused over a period of about one hour. Control perfusions of [^3 H]-Bk alone were always carried out before perfusions of samples containing ramiprilat because of the slow reversibility of inhibition of ACE by this compound. […] The effects of the latter two inhibitors were reversible.
Separation and Identification of Bradykinin Metabolites--The fractions which were collected from each perfusion sample run were counted for radioactivity, and the fraction having the highest radioactive counts was prepared for HPLC by filtration through a Centricon-10 microconcentrator (Amicon). An aliquot of the filtrate containing 25000 dpm (approx. 25 μl) was spiked with a cocktail of unlabelled Bk fragments (3 μl) and then subjected to HPLC using a Waters Radial Compression Separation System with a 5μ NOVA PAK C18 Radial Pak Cartridge. The column was developed at a flow rate of 1 ml/min with a 60 min linear gradient from 100% Solvent A (0.1% TFA in water) to 75% Solvent A: 25% Solvent B (0.08% TFA in acetonitrile) using a Spectra Physics 8700XR Solvent Delivery System. The column effluent was simultaneously monitored for absorbance at 206 nm (LKB Uvicord S) and for radioactivity (Radiomatic Flo-One HS Radioactive Flow Detector using Ultima-Flo M scintillation fluid from Packard, Meriden, Conn.). […] Radioactive peaks were identified by comparison of the retention times to those of the unlabelled standards. […]

For series [2], the target named is T1, partially purified human lung membrane-bound aminopeptidase P (Homo sapiens, UniProt O43895).
T1 construct: from tissue; host or cells: human lung microsomes
Kind of series: Aminopeptidase P inhibition, release of arginine from Arg-Pro-Pro (fluorescent assay). Type of series: biochemical. The conditions noted are these: human lung aminopeptidase P; for IC50: cleavage of 0.5 μM Arg-Pro-Pro in 0.1M Hepes, pH 8.0 at 37° C. Here is the method: The IC50 of the compound of the present invention in relation to aminopeptidase P was also determined. […] The specificity of the compound of the present invention for other aminopeptidases was similarly determined as described in the Experimental Procedures herein.
(§1) Enzymes--Membrane-bound aminopeptidase P was purified to homogeneity from bovine lung (14) and from rat lung. Partially purified membrane-bound aminopeptidase P from human lung was obtained by treatment of lung microsomes with phosphatidylinositol-specific phospholipase C (B. thuringiensis) (ICN, Costa Mesa, Calif.) followed by centrifugation as described previously (14). Membrane dipeptidase was purified from rat lung microsomes (manuscript in preparation). Recombinant E. coli aminopeptidase P (22) and purified lamb kidney prolyl oligopeptidase (23) were generally supplied by Dr. Tadashi Yoshimoto (Nagasaki University). Purified porcine kidney prolidase and purified porcine kidney aminopeptidase M was obtained from Sigma (St. Louis, Mo.).
Enzyme Kinetics--Aminopeptidase P activity was determined by measuring the release of arginine from Arg-Pro-Pro by a fluorescent assay described previously (14). […] Each mixture was run in duplicate. Aliquots were removed from each incubation mixture at various times and assayed for the amount of arginine present to determine the reaction velocity. In general, reaction velocities were calculated from data representing less than 20% cleavage of substrate. Ki and Ki ' (=αKi) were determined from plots of 1/v versus concentration of inhibitor "i" (26) and S/v versus concentration of inhibitor "i" (27), respectively. These parameters were also determined from the slope replot and 1/v-intercept replot, respectively, of the 1/v versus 1/S plot (28). […] The values from the two treatments of the data were averaged for each experiment. Experiments for each enzyme preparation were performed twice and the results averaged.

The target in series [3] is T2, purified bovine lung membrane-bound aminopeptidase P (Bos taurus, UniProt E1B735).
T2 construct: from tissue; host or cells: bovine lung
T2 sequence (E1B735 22-673): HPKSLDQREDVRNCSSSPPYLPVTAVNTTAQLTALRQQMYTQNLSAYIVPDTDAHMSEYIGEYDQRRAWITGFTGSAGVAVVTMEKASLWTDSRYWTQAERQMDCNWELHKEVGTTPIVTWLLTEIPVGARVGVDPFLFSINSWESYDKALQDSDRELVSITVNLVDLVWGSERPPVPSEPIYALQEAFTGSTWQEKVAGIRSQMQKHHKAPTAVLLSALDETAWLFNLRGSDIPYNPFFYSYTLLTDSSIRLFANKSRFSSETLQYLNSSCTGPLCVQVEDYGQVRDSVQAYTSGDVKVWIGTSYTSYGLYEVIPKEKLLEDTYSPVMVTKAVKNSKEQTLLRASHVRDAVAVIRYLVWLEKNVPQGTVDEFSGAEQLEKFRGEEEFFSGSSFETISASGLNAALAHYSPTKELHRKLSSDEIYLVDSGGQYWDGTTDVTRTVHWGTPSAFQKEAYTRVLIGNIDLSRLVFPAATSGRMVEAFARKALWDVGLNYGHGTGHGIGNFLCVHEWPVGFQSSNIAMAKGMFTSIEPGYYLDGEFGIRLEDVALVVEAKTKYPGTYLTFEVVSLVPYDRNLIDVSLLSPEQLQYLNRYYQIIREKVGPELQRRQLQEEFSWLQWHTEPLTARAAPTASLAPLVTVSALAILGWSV
The series is described as above. Type of series: biochemical. The conditions noted are these: bovine lung aminopeptidase P; cleavage of 0.5 μM Arg-Pro-Pro in 0.1M Hepes, pH 8.0 at 37° C. Here is the method: The IC50 of the compound of the present invention in relation to aminopeptidase P was also determined. […] The specificity of the compound of the present invention for other aminopeptidases was similarly determined as described in the Experimental Procedures herein. […] The following enzymes had IC50 values>800 μM: aminopeptidase A, angiotensin converting enzyme, dipeptidyl-peptidase I-like activity, bestatin-sensitive/amastatin-insensitive membrane dipeptidase (29), microsomal dipeptidase, endopeptidase 24.11, endopeptidase 24.15, and prolyl oligopeptidase.
as §1
Enzyme Kinetics--Aminopeptidase P activity was determined by measuring the release of arginine from Arg-Pro-Pro by a fluorescent assay described previously (14). […] Each mixture was run in duplicate. Aliquots were removed from each incubation mixture at various times and assayed for the amount of arginine present to determine the reaction velocity. In general, reaction velocities were calculated from data representing less than 20% cleavage of substrate. Ki and Ki ' (=αKi) were determined from plots of 1/v versus concentration of inhibitor "i" (26) and S/v versus concentration of inhibitor "i" (27), respectively. These parameters were also determined from the slope replot and 1/v-intercept replot, respectively, of the 1/v versus 1/S plot (28). See e.g., FIG. 1B. The values from the two treatments of the data were averaged for each experiment. Experiments for each enzyme preparation were performed twice and the results averaged.

The test system of series [4] is membrane-bound aminopeptidase P. Nature of the series: partially purified human lung membrane-bound aminopeptidase P in 0.1 M Hepes, pH 8.0. Conditions: 39° C.
The nature of series [5]: isolated perfused rat lung, modified Krebs buffer. The conditions noted are these: Male Sprague Dawley rats, 35° C.

T1 sequence (O43895 22-674): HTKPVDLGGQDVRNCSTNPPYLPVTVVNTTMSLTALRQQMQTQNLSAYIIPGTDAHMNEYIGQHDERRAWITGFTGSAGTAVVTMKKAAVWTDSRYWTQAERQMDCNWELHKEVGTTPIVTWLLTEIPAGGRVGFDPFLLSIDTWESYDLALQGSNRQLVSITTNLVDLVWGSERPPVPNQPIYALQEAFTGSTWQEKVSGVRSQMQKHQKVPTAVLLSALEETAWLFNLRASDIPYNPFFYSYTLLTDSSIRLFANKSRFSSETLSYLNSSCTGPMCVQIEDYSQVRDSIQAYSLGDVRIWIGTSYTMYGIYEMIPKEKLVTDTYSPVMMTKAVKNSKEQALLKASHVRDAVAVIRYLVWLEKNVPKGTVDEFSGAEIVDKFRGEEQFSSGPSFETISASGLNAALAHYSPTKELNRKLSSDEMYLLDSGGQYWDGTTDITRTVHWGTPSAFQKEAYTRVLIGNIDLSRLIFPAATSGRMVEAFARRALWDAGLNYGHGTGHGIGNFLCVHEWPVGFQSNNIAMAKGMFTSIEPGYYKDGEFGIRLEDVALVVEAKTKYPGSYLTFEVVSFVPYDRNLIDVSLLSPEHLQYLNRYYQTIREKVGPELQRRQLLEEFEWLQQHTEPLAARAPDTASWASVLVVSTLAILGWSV

Turning to `CC[C@H](C)[C@H](N)C(=O)N1CCC[C@H]1C(=O)N[C@H](C(=O)O)[C@@H](C)CC` [diprotin A, Ile-Pro-Ile], in series [1] (diprotin A present along with ramiprilat (data not shown)), the “form of radioactivity eluted from the lung” value was “most of the radioactivity eluted from the lung in the form of [^3 H]-Bk(2-9)”.

On to `CC(C)C[C@H](N)[C@@H](O)C(=O)N1CCC[C@H]1C(=O)N1CCC[C@H]1C(=O)N[C@@H](C)C(N)=O` [(2R,3S), N-[(2R,3S)-3-amino-2-hydroxy-5-methylhexanoyl]-L-prolyl-L-prolyl-L-alaninamide], for which the IC50 in series [2] turned out to be 0.43 µM; in series [3], 2.1 µM.

In the case of Arg-Pro-Pro, the cleaved bond entry in series [4] is “Arg-Pro”.

Take `CC(C)C[C@@H](N)[C@H](O)C(=O)N[C@H](C(=O)N[C@H](C(=O)N[C@@H](CC(=O)O)C(=O)O)C(C)C)C(C)C` [amastatin, [(2S, 3R)-3-amino-2-hydroxy-5-methylhexanoyl]-Val-Val-Asp]: in series [1] (100 μM along with ramiprilat in the perfusion medium (data not shown)), the “effect on the pattern of metabolites” value is listed as “no significant effect”.

As for [2,3-Prolyl-3,4-^3 H(N)]-bradykinin, in series [5], the cleaved bond entry was “rapid removal of Pro-Pro by dipeptidylpeptidase IV (DPP IV); also recorded: Pro7-Phe8; also recorded: removing Ser-Pro from the C-terminus (after Phe-Arg); also recorded: Arg1-Pro2, major; also recorded: [^3 H]-Pro-Pro arose by DPP IV cleavage of [^3 H]-Bk(2-9)”; the fragment found result is “[^3 H]-Bk(1-5), major; also recorded: [^3 H]-Pro-Pro, minor”; the not cleaved result was “no [^3 H]-Bk(1-7) was observed in the perfusate”.

Turning to `CC(C)C[C@@H](N)[C@H](O)C(=O)N1CCC[C@H]1C(=O)N1CCC[C@H]1C(=O)N[C@@H](C)C(N)=O` [(2S,3R), N-[(2S,3R)-3-amino-2-hydroxy-5-methylhexanoyl]-L-prolyl-L-prolyl-L-alaninamide], the IC50 was 0.23 µM in series [2] and 4.5 µM in series [3]. Moreover, the “IC50 relative to the IC50 of apstatin” value in series [2] (versus apstatin […]) is listed as “approximately ten-fold”.

As for `C[C@H](N[C@@H](CCc1ccccc1)C(=O)O)C(=O)N1[C@H](C(=O)O)C[C@@H]2CCC[C@@H]21` [ramiprilat], in series [1] (ramiprilat (0.5 μM) alone in the perfusion medium, mean ± SEM, three rats), the “percentage of radioactivity eluting from the lung as intact [3H]-Bk” value is 22±6% and 22%. In addition, the “fold increase of intact [3H]-Bk eluting from the lung” value in series [1] (ramiprilat alone versus no inhibitor (unmeasurable levels)) is listed as at least 22 fold.
